Measurements published in ChEMBL document CHEMBL1201862, “PubChem BioAssay data set” (2004).
Calls of active or inactive are those of the source.

Legend:
[1] = molecular target: T1, Sentrin-specific protease 8 (Homo sapiens, UniProt Q96LD8); assay type: functional
T1 sequence (Q96LD8 whole entry): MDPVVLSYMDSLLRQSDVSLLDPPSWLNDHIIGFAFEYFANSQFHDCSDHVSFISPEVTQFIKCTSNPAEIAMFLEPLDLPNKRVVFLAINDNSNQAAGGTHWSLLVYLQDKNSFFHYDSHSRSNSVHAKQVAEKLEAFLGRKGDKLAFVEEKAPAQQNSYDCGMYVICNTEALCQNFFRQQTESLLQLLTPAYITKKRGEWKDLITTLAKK

Caspase-3 = molecular target: T2, Caspase-3 (Homo sapiens, UniProt P42574); experiment: Dose-response confirmation of uHTS inhibitor hits of Sentrin-Specific Protease 8 in a Caspase-3 Fluorescence assay.; assay type: functional
T2 sequence (P42574 whole entry): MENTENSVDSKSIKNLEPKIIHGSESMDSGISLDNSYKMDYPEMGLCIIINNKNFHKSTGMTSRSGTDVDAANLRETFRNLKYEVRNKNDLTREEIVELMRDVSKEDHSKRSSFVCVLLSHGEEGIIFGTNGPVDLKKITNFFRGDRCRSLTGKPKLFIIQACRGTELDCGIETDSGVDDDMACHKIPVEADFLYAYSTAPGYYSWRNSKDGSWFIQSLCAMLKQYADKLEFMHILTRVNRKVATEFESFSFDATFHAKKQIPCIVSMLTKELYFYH

[2] = molecular target: T1, Sentrin-specific protease 8; assay type: functional; remark: listed apart in the source
[3] = molecular target: 72 kDa type IV collagenase (Homo sapiens, UniProt P08253); experiment: Dose Response validation of uHTS RPN11 inhibitor hits using a MMP-2 Fluorescence assay.; assay type: functional
[4] = molecular target: 26S proteasome non-ATPase regulatory subunit 14 (Homo sapiens, UniProt O00487); experiment: inhibition of proteasome subunit RPN11 – biochemical, fluorescence polarization, uHTS hits, confirmation (AID 602368); assay type: functional
Prothrombin = Prothrombin (Bos taurus, UniProt P00735); experiment: thrombin protease inhibitors – biochemical, fluorescence polarization, uHTS hits, dose response (AID 602369); assay type: functional
[5] = molecular target: Tyrosine-protein phosphatase non-receptor type 22 (Homo sapiens, UniProt Q9Y2R2); experiment: lymphoid phosphatase LYP inhibitors – biochemical, selectivity assay for STEP inhibitor project, dose response (AID 624241); assay type: functional
[6] = molecular target: T3, Tyrosine-protein phosphatase non-receptor type 11 (Homo sapiens, UniProt Q06124); experiment: PTPN11 enzyme inhibitors – biochemical, selectivity assay for STEP inhibitor project, dose response (AID 602367); assay type: functional; details: read-out: IC50_Mean
T3 sequence (Q06124 whole entry): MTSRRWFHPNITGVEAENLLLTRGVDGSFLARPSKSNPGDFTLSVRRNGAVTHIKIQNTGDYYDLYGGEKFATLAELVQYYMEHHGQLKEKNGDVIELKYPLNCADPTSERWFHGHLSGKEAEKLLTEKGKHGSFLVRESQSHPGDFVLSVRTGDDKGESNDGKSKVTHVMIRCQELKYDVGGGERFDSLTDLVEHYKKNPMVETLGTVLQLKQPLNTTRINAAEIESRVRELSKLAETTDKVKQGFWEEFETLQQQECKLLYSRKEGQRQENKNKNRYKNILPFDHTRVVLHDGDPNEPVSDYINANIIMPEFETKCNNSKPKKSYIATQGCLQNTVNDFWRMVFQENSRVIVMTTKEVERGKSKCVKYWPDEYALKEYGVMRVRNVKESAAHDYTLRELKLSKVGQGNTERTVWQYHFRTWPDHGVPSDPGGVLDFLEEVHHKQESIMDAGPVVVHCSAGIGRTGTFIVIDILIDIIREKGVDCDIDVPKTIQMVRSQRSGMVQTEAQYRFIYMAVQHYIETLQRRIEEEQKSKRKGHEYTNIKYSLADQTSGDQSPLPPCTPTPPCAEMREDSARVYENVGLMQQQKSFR

[7] = molecular target: Dual specificity protein phosphatase 3 (Homo sapiens, UniProt P51452); experiment: VHR phosphatase inhibition, dose response, selectivity assay for STEP inhibitor project, biochemical (AID 602374); assay type: functional; details: read-out: IC50_Mean
[8] = molecular target: T4, Tyrosine-protein phosphatase non-receptor type 5 (Homo sapiens, UniProt P54829); experiment: PTPN5 enzyme inhibition – biochemical, fluorescence intensity, uHTS hits, confirmation (AID 602372); assay type: functional; details: read-out: IC50_Mean
T4 sequence (P54829 whole entry): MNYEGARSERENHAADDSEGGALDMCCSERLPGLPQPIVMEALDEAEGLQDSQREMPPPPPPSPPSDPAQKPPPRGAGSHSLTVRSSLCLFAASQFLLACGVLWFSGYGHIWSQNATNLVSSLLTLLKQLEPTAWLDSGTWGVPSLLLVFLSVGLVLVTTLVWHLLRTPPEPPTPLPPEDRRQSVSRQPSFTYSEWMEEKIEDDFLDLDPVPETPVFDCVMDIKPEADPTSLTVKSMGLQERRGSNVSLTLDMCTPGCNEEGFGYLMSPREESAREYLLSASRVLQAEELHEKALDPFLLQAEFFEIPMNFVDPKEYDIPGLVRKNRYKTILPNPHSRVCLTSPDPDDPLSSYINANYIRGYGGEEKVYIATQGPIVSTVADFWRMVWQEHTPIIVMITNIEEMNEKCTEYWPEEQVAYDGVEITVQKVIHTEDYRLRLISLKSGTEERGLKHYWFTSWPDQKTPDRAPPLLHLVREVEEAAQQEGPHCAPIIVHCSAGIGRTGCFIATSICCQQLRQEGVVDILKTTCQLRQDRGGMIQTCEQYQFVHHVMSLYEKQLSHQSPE

[9] = molecular target: T5, Corticotropin-releasing factor receptor 2/Corticotropin-releasing factor-binding protein (Homo sapiens, UniProt P24387+Q13324); experiment: activators of CRF receptor 2 with binding protein – uHTS hits, confirmation (AID 602473); assay type: functional; details: read-out: EC50_Mean
T5 sequence (Q13324 whole entry): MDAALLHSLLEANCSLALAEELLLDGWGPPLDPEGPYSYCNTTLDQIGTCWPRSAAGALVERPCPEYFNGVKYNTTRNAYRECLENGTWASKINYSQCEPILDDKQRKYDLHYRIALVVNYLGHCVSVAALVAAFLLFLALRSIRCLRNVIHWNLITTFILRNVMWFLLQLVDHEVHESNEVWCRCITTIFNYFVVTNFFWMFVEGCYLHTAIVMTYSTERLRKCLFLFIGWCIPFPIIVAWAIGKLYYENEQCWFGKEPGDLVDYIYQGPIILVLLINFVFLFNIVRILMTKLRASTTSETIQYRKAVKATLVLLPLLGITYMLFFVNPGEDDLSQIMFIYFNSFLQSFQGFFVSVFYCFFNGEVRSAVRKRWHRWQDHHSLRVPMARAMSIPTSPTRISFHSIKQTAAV
T5 sequence (P24387 whole entry): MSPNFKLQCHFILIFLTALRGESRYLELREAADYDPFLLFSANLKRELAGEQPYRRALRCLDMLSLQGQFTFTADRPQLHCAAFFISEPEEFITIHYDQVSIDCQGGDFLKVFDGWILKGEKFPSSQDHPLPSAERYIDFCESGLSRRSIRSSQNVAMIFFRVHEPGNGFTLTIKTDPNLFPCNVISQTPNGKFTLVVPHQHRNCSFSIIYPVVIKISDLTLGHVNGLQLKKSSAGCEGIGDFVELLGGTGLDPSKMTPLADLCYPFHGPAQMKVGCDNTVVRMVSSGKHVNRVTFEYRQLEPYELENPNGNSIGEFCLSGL

[10] = molecular target: DNA repair and recombination protein RAD54-like (Homo sapiens, UniProt Q92698); experiment: RAD54 Holliday junction migration blockers – biochemical, fluorescence, cherry-picked samples, dose series, confirmation (AID 651657); assay type: functional
Vero = experiment: cells; assay type: functional; details: Chlorocebus sabaeus
[11] = molecular target: T6, DNA repair protein RAD52 homolog (Homo sapiens, UniProt P43351); assay type: functional, biochemical
T6 sequence (P43351 whole entry): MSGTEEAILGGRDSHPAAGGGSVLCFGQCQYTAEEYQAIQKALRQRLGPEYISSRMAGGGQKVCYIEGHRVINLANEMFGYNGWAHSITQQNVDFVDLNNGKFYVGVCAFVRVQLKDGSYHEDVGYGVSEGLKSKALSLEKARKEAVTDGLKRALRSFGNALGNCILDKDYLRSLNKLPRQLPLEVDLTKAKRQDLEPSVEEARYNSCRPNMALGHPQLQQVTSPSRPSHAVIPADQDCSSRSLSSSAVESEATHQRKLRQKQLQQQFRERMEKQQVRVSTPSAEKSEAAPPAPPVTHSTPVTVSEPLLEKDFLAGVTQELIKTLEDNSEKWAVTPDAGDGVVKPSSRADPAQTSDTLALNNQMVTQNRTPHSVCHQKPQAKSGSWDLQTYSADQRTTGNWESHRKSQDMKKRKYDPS

Sequence of DNA repair and recombination protein RAD54-like (Q92698 whole entry): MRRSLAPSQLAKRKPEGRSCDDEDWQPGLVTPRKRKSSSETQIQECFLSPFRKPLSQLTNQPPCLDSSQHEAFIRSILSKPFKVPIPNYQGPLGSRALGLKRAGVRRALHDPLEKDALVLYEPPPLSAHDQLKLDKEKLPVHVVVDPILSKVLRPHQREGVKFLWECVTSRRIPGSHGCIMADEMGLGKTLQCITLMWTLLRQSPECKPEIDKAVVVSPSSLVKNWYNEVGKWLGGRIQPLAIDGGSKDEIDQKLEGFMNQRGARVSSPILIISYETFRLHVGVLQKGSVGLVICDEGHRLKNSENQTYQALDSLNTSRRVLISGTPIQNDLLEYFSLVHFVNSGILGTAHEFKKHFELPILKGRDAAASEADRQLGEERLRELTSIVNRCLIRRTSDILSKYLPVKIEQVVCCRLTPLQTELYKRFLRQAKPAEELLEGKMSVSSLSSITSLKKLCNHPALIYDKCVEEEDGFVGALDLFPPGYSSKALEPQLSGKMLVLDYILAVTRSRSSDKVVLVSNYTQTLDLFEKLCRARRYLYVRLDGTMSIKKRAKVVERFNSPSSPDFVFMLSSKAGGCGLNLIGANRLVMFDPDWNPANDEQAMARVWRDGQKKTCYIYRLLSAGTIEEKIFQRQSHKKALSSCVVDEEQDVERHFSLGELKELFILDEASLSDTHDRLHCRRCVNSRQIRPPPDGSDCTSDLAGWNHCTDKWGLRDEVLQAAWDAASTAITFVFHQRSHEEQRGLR
Sequence of 72 kDa type IV collagenase (P08253 whole entry): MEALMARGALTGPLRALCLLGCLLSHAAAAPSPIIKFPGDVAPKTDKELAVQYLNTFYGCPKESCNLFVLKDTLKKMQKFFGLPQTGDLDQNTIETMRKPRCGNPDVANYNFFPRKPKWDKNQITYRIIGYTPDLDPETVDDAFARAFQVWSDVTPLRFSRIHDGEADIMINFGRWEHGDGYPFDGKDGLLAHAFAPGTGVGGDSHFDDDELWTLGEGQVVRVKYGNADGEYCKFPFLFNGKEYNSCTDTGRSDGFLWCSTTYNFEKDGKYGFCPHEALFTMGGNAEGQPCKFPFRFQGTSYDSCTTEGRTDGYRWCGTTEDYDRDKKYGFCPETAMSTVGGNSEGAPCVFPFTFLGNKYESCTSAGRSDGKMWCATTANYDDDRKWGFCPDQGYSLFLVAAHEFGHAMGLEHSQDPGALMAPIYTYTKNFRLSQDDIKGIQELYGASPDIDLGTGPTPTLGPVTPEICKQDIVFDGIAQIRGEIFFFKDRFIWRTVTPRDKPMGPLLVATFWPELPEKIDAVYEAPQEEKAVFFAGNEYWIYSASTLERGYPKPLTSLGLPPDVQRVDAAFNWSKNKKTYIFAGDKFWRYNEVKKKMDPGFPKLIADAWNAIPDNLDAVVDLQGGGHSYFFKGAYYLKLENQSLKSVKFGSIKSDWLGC
Sequence of 26S proteasome non-ATPase regulatory subunit 14 (O00487 whole entry): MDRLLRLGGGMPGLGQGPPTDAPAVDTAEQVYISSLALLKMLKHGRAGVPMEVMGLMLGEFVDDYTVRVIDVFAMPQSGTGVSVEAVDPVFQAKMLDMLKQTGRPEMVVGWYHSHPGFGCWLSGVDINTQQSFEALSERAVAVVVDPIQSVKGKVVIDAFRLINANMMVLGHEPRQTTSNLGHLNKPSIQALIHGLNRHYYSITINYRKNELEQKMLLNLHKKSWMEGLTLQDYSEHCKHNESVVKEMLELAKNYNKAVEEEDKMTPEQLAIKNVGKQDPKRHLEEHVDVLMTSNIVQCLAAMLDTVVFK
Sequence of Dual specificity protein phosphatase 3 (P51452 whole entry): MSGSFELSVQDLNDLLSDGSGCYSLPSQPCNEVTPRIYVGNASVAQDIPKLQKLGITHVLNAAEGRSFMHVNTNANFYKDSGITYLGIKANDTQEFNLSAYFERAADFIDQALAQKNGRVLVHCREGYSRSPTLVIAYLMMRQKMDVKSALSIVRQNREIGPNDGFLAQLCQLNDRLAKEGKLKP
Sequence of Tyrosine-protein phosphatase non-receptor type 22 (Q9Y2R2 whole entry): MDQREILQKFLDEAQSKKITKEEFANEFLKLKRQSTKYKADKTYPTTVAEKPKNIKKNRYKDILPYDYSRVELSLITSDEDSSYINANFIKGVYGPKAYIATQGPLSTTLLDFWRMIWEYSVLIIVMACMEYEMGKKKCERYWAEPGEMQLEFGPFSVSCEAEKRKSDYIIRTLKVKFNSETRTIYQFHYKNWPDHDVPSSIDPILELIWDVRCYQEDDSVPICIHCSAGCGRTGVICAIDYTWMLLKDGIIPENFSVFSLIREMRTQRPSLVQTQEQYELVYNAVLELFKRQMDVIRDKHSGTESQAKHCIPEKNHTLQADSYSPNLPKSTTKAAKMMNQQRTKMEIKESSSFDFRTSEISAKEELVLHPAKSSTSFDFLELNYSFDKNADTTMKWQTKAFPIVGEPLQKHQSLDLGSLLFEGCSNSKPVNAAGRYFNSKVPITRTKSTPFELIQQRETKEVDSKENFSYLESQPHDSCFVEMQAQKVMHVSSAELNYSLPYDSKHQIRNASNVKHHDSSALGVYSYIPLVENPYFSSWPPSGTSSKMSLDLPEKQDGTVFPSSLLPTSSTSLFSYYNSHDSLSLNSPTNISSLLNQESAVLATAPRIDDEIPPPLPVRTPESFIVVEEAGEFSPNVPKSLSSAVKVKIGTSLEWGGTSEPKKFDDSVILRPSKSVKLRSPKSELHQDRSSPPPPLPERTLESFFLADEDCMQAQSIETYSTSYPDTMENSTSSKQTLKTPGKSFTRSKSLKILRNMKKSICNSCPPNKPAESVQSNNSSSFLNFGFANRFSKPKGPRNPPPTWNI

O=C(CCC(=O)N1CCc2ccccc2C1)N1CCN(S(=O)(=O)c2ccccc2)CC1
IC50 [1]: 12.9 µM (active)
IC50 (Caspase-3): 50 µM (active)
IC50 [2]: 22.2 µM (active)

CCn1c(SCC(=O)c2c[nH]c3ccccc23)nnc1-c1cccs1
IC50 [3]: > 100 µM (inactive)
IC50 [4]: 24.3 µM (active)
IC50 (Prothrombin): 60.5 µM (active)

COc1ccccc1NS(=O)(=O)c1cc(NC(=O)c2sccc2C)ccc1N1CCCC1
IC50 [5]: 25.9 µM (inactive)
IC50 [6]: 0.665 µM (active)
IC50 [7]: 0.163 µM (active)
IC50 [8]: 2.73 µM (active)

Cc1ccc(N2C(=O)/C(=C\NN3CCCCC3c3cccnc3)C(=O)NC2=S)cc1 (stereo not drawn)
IC50 [3]: > 100 µM (inactive)
IC50 [4]: 31.7 µM (active)
IC50 (Prothrombin): 71.3 µM (active)

O=c1c2ccccc2sc2ccc(NCCCN3CCOCC3)cc12
EC50 [9]: 7.98 µM (active)
AC50 [10]: 31.2 µM (active)
CC50 (Vero): > 25 µM (active)

N=c1n(CCN2CCCCC2)c2ccccc2n1CC(=O)c1cccc([N+](=O)[O-])c1
AC50 [11]: 9.9 µM (active)
AC50 [10]: 23.7 µM (active)
